The record followed here is publication PMC6880817, “Palladium-catalyzed synthesis and nucleotide pyrophosphatase inhibition of benzo[4,5]furo[3,2-b]indoles” (Beilstein Journal of Organic Chemistry, 2019).

One may read the IC50 as the concentration at which inhibition is half-maximal. As a reminder, the melting point is the temperature of the solid-liquid transition.

One data set concerns the target T1, h-NPP-1 (Homo sapiens, UniProt P22413).
T1 construct: made in house; host or cells: COS-7 cells transiently transfected with a plasmid expressing human NPP-1; lysate/membrane fraction used as the enzyme
T1 sequence (P22413 1-925): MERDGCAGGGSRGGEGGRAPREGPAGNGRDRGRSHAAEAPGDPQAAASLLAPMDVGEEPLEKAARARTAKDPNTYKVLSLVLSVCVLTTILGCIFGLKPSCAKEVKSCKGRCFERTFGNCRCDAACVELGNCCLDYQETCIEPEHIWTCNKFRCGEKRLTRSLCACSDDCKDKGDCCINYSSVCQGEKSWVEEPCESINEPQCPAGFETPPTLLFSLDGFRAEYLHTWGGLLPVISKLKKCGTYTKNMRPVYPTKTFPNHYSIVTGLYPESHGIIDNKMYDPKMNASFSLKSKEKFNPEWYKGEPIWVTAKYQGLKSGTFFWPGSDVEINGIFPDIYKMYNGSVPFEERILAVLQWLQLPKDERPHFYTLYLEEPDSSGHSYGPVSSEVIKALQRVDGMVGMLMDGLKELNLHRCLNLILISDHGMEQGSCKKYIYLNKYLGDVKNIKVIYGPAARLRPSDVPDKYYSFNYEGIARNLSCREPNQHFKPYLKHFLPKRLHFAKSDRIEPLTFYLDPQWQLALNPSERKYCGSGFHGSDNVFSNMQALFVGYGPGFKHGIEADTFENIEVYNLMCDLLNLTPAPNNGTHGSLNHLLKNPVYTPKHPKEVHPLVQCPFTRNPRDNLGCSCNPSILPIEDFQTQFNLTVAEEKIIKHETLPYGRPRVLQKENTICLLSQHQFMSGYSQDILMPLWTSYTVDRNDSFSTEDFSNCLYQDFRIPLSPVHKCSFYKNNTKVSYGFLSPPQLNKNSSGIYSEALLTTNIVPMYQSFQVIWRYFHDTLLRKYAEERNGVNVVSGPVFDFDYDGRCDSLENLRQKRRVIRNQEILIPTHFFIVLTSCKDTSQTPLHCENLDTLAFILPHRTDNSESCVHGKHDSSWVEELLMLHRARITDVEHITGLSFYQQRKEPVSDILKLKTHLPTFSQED
The data set can be described thus: Nucleotide pyrophosphatase inhibition assay (colorimetric, pNP-TMP substrate), h-NPP-1. Format: biochemical. As to conditions: for interaction with enzyme h-NPP-1: result in words. Here is the method: (§1) The inhibition potential of all the sulphonate derivatives against NPP1 and NPP3, was determined by considering an already reported colorimetric method with minor modifications. The reaction buffer was comprised of 50 mM Tris-hydrochloric acid, 5 mM magnesium chloride (MgCl2) and 0.1 mM zinc chloride (ZnCl2) with final pH 9.5. For initial screening of compounds, first enzyme and substrate parameters (concentration, temperature, time) were optimized. The reaction assay was performed at 100 µL well volume containing assay buffer, 10 µL of 1 mM test compound prepared in 10% DMSO, enzymes NPP1 (35 ng), NPP3 (94 ng) and assay buffer. The reaction mixture was incubated at 37 °C, 10 minutes for NPP1 and NPP3. Absorbance was taken at wavelength of 405 nm as pre-read by using a microplate reader (BioTek FLx800, Instruments, Inc. USA). After pre-read the artificial substrate p-nitrophenyl 5'-thymidine monophosphate (pNP-TMP), 400 µM for NPP1 and 600 µM in case of NPP3, was added followed by a second incubation at 37 °C, 15 minutes for NPP1 and NPP3. Absorbance was taken as after read. All the experiments were performed in triplicate.
(§2) Cell transfection with human NPPs. Analogous as previously described, COS-7 cells were transfected with plasmids expressing human NPPs ((NPP-1) or (NPP-3)) in 10 cm plates, by using Lipofectamine. The confluent cells were incubated for 5 h at 37 °C in DMEM/F-12 in the absence of fetal bovine serum and with 6 µg of plasmid DNA and 24 µL of lipofectamine reagent. Subsequently, the same volume of DMEM/F-12 containing 20% FBS was added to stop the transfection and cells were harvested 48–72 h later.
(§3) Preparation of membrane fractions. Analogous as previously described, the transfected cells were washed three times with Tris–saline buffer at 4 °C and then the cells were collected by scraping in the harvesting buffer (95 mM NaCl, 0.1 mM PMSF, and 45 mM Tris buffer, pH 7.5). Afterwards, the cells were washed twice by centrifugation at 300g for 5 min at 4 °C [4]. These cells were resuspended in the harvesting buffer containing 1 0 µg/mL aprotinin and then sonicated. Cellular and nuclear debris were discarde d by 10 min centrifugation (300 g at 4 °C). Glycerol (final concentration of 7.5%) was added to the resulting supernatant and all the samples were kept at −80 °C until used. Bra dford microplate assay was used for the estimation of protein concentration. Bovine serum albumin was used as a reference standard.
(§4) Protocol of nucleotide pyrophosphatase (h -NPP-1 & h-NPP-3) activity. Analogous as previously described , the conditions for the assay were optimized with the slight modifications in previously used spectrophotometric method. The reaction was carried out in the assay buffer which contained 5 mM MgCl 2, 0.1 mM ZnCl 2, 25% glycerol and 50 mM tris-hydrochloride (pH: 9.5). Initial screening was performed at a concentration of 0.1 mM of the tested compounds. The total volume of 100 µL contained 70 µL of the assay buffer, 10 µL of tested compound (0.1 mM with final DMSO 1% (v/v)) and 10 µL of h -NPP-1 (27 ng of protein from CO S cell lysate in assay buffer ) or 10 µL of h -NPP-3 (25 ng of protein from COS cell lysate in assay buffer ). The mixture was pre -incubated for 10 minutes at 37 °C and absorbance was measured at 405 nm as pre -read using microplate reader (BioTek FLx800, Instruments, Inc. USA). The reaction was then initiated by the addition of 10 µL of p-Nph-5-TMP substrate at a final concentration of 0.5 mM and the reaction mixture was incubated for 30 more min at 37 °C. The change in the absorbance was measured as after -read. The activity of each compound was compared with the reaction in absence of tested compounds/inhibitors.
(§5) 3 activity were further evaluated for determination of IC 50 values. For this purpose, their dose response curves were obtained by assaying each inhibitor concentration against both NPPs […]
(§6) using the above mentioned reaction conditions. […]

The next data set deals with T2, h-NPP-3 (Homo sapiens, UniProt O14638).
T2 construct: made in house; host or cells: COS-7 cells transiently transfected with a plasmid expressing human NPP-3; lysate/membrane fraction used as the enzyme
T2 sequence (O14638 1-875): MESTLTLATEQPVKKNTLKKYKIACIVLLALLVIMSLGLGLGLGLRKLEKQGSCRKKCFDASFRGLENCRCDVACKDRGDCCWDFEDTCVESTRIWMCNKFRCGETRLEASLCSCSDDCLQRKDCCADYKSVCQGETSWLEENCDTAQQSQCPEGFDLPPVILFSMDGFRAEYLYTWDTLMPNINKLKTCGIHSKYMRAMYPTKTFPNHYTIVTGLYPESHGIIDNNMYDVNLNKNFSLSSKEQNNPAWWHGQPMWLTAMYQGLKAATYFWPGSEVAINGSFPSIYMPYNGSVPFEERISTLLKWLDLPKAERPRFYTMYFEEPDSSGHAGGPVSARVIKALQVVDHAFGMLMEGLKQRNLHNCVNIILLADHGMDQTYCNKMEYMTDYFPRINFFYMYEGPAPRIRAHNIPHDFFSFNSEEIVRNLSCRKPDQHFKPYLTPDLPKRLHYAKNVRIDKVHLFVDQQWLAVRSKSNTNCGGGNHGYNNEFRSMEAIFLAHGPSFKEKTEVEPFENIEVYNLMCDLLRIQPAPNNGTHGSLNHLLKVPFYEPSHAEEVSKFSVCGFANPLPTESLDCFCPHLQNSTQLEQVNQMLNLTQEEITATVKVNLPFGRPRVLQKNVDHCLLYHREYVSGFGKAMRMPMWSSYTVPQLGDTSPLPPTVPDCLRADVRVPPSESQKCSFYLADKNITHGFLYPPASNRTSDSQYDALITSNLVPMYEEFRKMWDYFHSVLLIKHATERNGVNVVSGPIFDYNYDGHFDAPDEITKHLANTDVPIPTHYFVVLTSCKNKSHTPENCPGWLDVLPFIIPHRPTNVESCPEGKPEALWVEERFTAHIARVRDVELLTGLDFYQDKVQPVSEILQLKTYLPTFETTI
The data set can be described thus: Nucleotide pyrophosphatase inhibition assay (colorimetric, pNP-TMP substrate), h-NPP-3. Format: biochemical. Particulars: for selectivity of inhibitory response towards h-NPP-3: h-NPP-3 versus h-NPP-1, result in words. Here is the method:
as §1, §2, §3, §4, §5, §6

The mark [1] stands for this setting: human recombinant NPP1, pNP-TMP substrate, pH 9.5, 37 °C, absorbance 405 nm, read-out: h-NPP-1 IC50 (µM) ± SEM.
[2] abbreviates: human recombinant NPP3, pNP-TMP substrate, pH 9.5, 37 °C, absorbance 405 nm, read-out: h-NPP-3 IC50(µM) ± SEM.
The mark [3] stands for this setting: read-out: h-NPP-3 IC50 ± SEM (unit inferred).

Read-outs that look alike come from different tables or passages of the source.

As to `c1ccc(-n2c3ccccc3c3oc4ccccc4c32)cc1` [Compound 5a], the melting point fell in the range of 137 to 139 °C. Besides, on h-NPP-1 (setting [1]), the IC50 is more than 100 µM. Moreover, the “selectivity of inhibitory response towards h-NPP-3” value on h-NPP-3 is “selective inhibitory response towards nucleotide pyrophosphatase enzyme h-NPP-3”. Also, the half-inhibitory concentration (IC50) on h-NPP-3 (setting [2]) was determined as 1.38 ± 0.03 µM.
`Cc1ccc(-n2c3ccccc3c3oc4ccccc4c32)cc1` [Compound 5b] showed a melting point of 134 to 135 °C. The IC50 on h-NPP-1 (setting [1]) stood at 2.84 ± 0.06 µM. Besides, the IC50 at h-NPP-3 (setting [2]) was determined as 0.59 ± 0.02 µM.
In the same order, the values of `FC(F)(F)c1cccc(-n2c3ccccc3c3oc4ccccc4c32)c1` [Compound 5d] are 178 to 179 °C, 3.57 ± 0.03 µM and 0.49 ± 0.04 µM.
For the molecule `COc1ccc(-n2c3ccccc3c3oc4ccccc4c32)cc1` [Compound 5e], the IC50 at h-NPP-1 (setting [1]) was more than 100 µM; at h-NPP-3 (read-out: inhibitory value for h-NPP-3, IC50 ± SEM), 0.26 ± 0.01 µM. Moreover, the “selectivity of inhibitory response towards h-NPP-3” value at h-NPP-3 is given as “selective inhibitory response towards nucleotide pyrophosphatase enzyme h-NPP-3”.
Consider `COc1ccc(-n2c3ccccc3c3oc4ccccc4c32)cc1OC` [Compound 5f], for which the melting point is 175 to 176 °C.
In the case of `c1ccc(Cn2c3ccccc3c3oc4ccccc4c32)cc1` [Compound 5h], the 50% inhibitory concentration (IC50) at h-NPP-1 (setting [1]) came to 2.62 ± 0.03 µM; on h-NPP-3 (setting [2]), 0.27 ± 0.06 µM.
Taken in the same sequence, the figures for `CCCCCCCn1c2ccccc2c2oc3ccccc3c21` [Compound 5i] were 3.27 ± 0.08 µM and 2.55 ± 0.07 µM.
Molecule `c1ccc2c(c1)oc1c3ccccc3n(C3CCCCC3)c21` [Compound 5j] displayed a melting point of 163 to 164 °C. In addition, on h-NPP-1 (setting [1]), the concentration for half-maximal inhibition (IC50) came to 6.14 ± 0.09 µM. In addition, the IC50 on h-NPP-3 (setting [2]) came to 2.39 ± 0.05 µM.
On to `Cc1ccc(-n2c3ccccc3c3oc4c5ccccc5n(-c5ccc(C)cc5)c4c32)cc1` [Compound 6a], for which the IC50 at h-NPP-1 (read-out: inhibitory value for h-NPP-1, IC50 ± SEM) was 0.11 ± 0.06 µM; at h-NPP-3 (setting [2]), 0.61 ± 0.09 µM.
Turning to `Fc1ccc(-n2c3ccccc3c3oc4c5ccccc5n(-c5ccc(F)cc5)c4c32)cc1` [Compound 6b], the values for the IC50 at h-NPP-1 (setting [1]) and on h-NPP-3 (setting [3]) were more than 100 µM and 0.13 ± 0.06 µM, respectively. At h-NPP-1, the “interaction with enzyme h-NPP-1” value is “no interaction with enzyme h-NPP-1”. Also, the “selectivity of inhibitory response towards h-NPP-3” value at h-NPP-3 is reported as “highly selective towards h-NPP-3”.
Taken in the same sequence, the figures for `FC(F)(F)c1cccc(-n2c3ccccc3c3oc4c5ccccc5n(-c5cccc(C(F)(F)F)c5)c4c32)c1` [Compound 6c] were more than 100 µM, 0.28 ± 0.04 µM, “no interaction with enzyme h-NPP-1” and “highly selective towards h-NPP-3”.
Consider `COc1ccc(-n2c3ccccc3c3oc4c5ccccc5n(-c5ccc(OC)cc5)c4c32)cc1` [Compound 6d], for which the results for the IC50 on h-NPP-1 (setting [1]) and at h-NPP-3 (setting [2]) were 1.38 ± 0.09 µM and 0.18 ± 0.01 µM, respectively.
Taken in the same sequence, the figures for `c1ccc(Cn2c3ccccc3c3oc4c5ccccc5n(Cc5ccccc5)c4c32)cc1` [Compound 6e] were 0.53 ± 0.09 µM and 0.21 ± 0.04 µM.
